In paper PMC11547513, “Design, Synthesis and Biological Activity Evaluation of β-Carboline Derivatives Containing Nitrogen Heterocycles” (Molecules, 2024):
Where two headings read alike, the source gives them in different places.

Assays:
[1] = tested on: Hek-293T (human embryonic kidney cells); experiment: MTT assay, in vitro cytotoxicity on normal Hek-293T; settings: read-out: Inhibitory Activity/% at 10 μM, Hek-293T
Source text: (§1) Cells were purchased from the Cell Bank of the Chinese Academy of Sciences (Kunming, China).

[2] = tested on: A549 (human lung cancer cell); experiment: MTT assay, in vitro cytotoxicity on A549; settings: A549, read-out: Inhibitory Activity/% at 10 μM, A549
Source text: as §1

[3] = tested on: K562 (human chronic myeloid leukemia cell); experiment: MTT assay, in vitro cytotoxicity on K562; settings: Homo sapiens, K562, read-out: Inhibitory Activity/% at 10 μM, K562
Source text: as §1

[4] = tested on: PC-3 (human prostate cancer cell); experiment: MTT assay, in vitro cytotoxicity on PC-3; settings: 10 μM, average of three replicates, "/" means no anticancer activity; for inhibition at 10 µM: Homo sapiens
Source text: as §1

[5] = tested on: T47D (human breast cancer cell); experiment: MTT assay, in vitro cytotoxicity on T47D; settings: read-out: Inhibitory Activity/% at 10 μM, T47D
Source text: as §1

[6] = read-out: Inhibitory Activity/% at 10 μM, PC-3, Table 2 (8 series)
[7] = read-out: Inhibitory Activity/% at 10 μM, PC-3, Table 1 (7 series)

| melting point [°C] | SMILES | inhibition at 10 µM [1] [%] | inhibition at 10 µM [2] [%] | inhibition at 10 µM [3] [%] | inhibition at 10 µM [4, 6] [%] | inhibition at 10 µM [5] [%] | inhibition at 10 µM [4, 7] [%] | Inhibitory Activity/% at 10 μM, PC-3 ([4]; Table 2 (8 series)) [%] |
| --- | --- | --- | --- | --- | --- | --- | --- | --- |
| 155.8 to 157.9 | COc1cc(-c2nc(-c3nnc(SCC(=O)N4CCN(c5ccc(Br)cc5)CC4)o3)cc3c2[nH]c2ccccc23)cc(OC)c1OC [Compound 8b] | 38.4 ± 3.85 | 5.03 ± 5.42 | 10.8 ± 2.32 | 8.91 ± 5.34 | 10.6 ± 1.16 |  |  |
|  | COc1cccc(N2CCN(C(=O)CSc3nnc(-c4cc5c(cn4)[nH]c4ccccc45)o3)CC2)c1 [Compound 7j] | 13.4 ± 0.68 | 34 ± 0.87 | 13.6 ± 1.21 |  | 39.9 ± 3.5 | 14.7 ± 4.49 |  |
| 228.3 to 229.6 | O=C(CSc1nnc(-c2cc3c(cn2)[nH]c2ccccc23)o1)N1CCOCC1 [Compound 7l] | 11.2 ± 7.91 | 12.2 ± 6.14 | 9.28 ± 2.51 |  | 19.3 ± 5.03 | 39.6 ± 5.06 |  |
| 174.3 to 175.6 | CS(=O)(=O)N1CCN(C(=O)CSc2nnc(-c3cc4c(cn3)[nH]c3ccccc34)o2)CC1 [Compound 7m] | 29.5 ± 3.33 | 14.7 ± 3.64 | 33 ± 1.83 |  | 25.2 ± 4.1 | 20 ± 3.22 |  |
| 275.4 to 277.7 | O=C(CSc1nnc(-c2cc3c(cn2)[nH]c2ccccc23)o1)N1CCN(c2ccc(Br)cc2)CC1 [Compound 7b] | 33.3 ± 0.8 | 13.6 ± 7.88 | 8.98 ± 3.13 |  | 42.6 ± 1.65 | 29.09 ± 0.27 |  |
| 156.8 to 158.1 | COc1cc(-c2nc(-c3nnc(SCC(=O)N4CCN(c5ccc(F)cc5)CC4)o3)cc3c2[nH]c2ccccc23)cc(OC)c1OC [Compound 8d] | 36.9 ± 2.63 | 10.1 ± 4.44 | 8.62 ± 5.59 | 17.9 ± 2.8 | < 0 |  |  |
|  | COc1cc(-c2nc(-c3nnc(SCC(=O)N4CCN(c5ccc(Cl)c(Cl)c5)CC4)o3)cc3c2[nH]c2ccccc23)cc(OC)c1OC [Compound 8a] | 29.4 ± 2.16 | 7.02 ± 4.02 | 21 ± 1.65 | 7.73 ± 1.33 | 7.49 ± 3.25 |  |  |
| 246.4 to 248.3 | O=C(CSc1nnc(-c2cc3c(cn2)[nH]c2ccccc23)o1)N1CCN(c2ccc(Cl)cc2)CC1 [Compound 7e] | 26.4 ± 1.35 | 18 ± 2.06 | 12.7 ± 4.72 |  | 47.7 ± 3.36 | 25 ± 4.06 |  |
|  | O=c1[nH]cc(F)c(=O)[nH]1 [5-Fluorouracil, reference compound] |  | 40.6 ± 2.04 |  |  |  |  |  |
| 235.8 to 237.4 | COc1cc(-c2nc(-c3nnc(SCC(=O)Nc4ccc(F)cc4)o3)cc3c2[nH]c2ccccc23)cc(OC)c1OC [Compound 8k] | 29.6 ± 2.33 | 33.2 ± 0.45 | 33.5 ± 8.79 | > 40 | 6.94 ± 3.38 |  | 44.72 ± 1.82 |
| 300.7 to 302.9 | O=C(CSc1nnc(-c2cc3c(cn2)[nH]c2ccccc23)o1)N1CCN(c2ccc(C(F)(F)F)cn2)CC1 [Compound 7r] | 0.74 ± 3.77 | 3.03 ± 5.83 | 17.2 ± 2.35 |  | 38.4 ± 5.85 | 44 ± 2.62 |  |
|  | COc1ccc(N2CCN(C(=O)CSc3nnc(-c4cc5c(cn4)[nH]c4ccccc45)o3)CC2)cc1 [Compound 7f] | 56.8 ± 2.21 | 13.5 ± 6.97 | 21.5 ± 3.02 |  | 42.4 ± 4.23 | 11.5 ± 2.78 |  |
| 296.4 to 297.9 | O=C(CSc1nnc(-c2cc3c(cn2)[nH]c2ccccc23)o1)Nc1ccc(F)cc1 [Compound 7k] | 30.8 ± 2.59 | 10.1 ± 6.19 | 12.2 ± 0.18 |  | 47.5 ± 1.39 | 35.8 ± 4.09 |  |
|  | COc1cc(-c2nc(-c3nnc(SCC(=O)N4CCN(c5ccc(Cl)cc5)CC4)o3)cc3c2[nH]c2ccccc23)cc(OC)c1OC [Compound 8e] | 23.4 ± 3.77 | 26.8 ± 2.6 | 54.4 ± 2.32 | 26.9 ± 4.39 | < 0 |  |  |
| 163.9 to 165.8 | O=C(CSc1nnc(-c2cc3c(cn2)[nH]c2ccccc23)o1)N1CCN(c2ccc(O)cc2)CC1 [Compound 7c] | 47.3 ± 4.59 | 16.8 ± 2.39 | 18.1 ± 2.63 |  | 40.2 ± 0.9 | 22.7 ± 2.19 |  |
|  | O=C(CSc1nnc(-c2cc3c(cn2)[nH]c2ccccc23)o1)N1CCN(c2ccc(F)cc2)CC1 [Compound 7d] | 36.9 ± 1.74 | 11.2 ± 0.69 | 17.8 ± 3.97 |  | 25.4 ± 4.82 | 26.5 ± 5.76 |  |
| 158.8 to 161.4 | O=C(CSc1nnc(-c2cc3c(cn2)[nH]c2ccccc23)o1)N1CCN(C2CCCCC2)CC1 [Compound 7p] | 61.5 ± 3.24 | 17 ± 2.1 | 8.68 ± 6.83 |  | 50.7 ± 5.79 | 51.2 ± 3.11 |  |
|  | COc1cc(-c2nc(-c3nnc(SCC(=O)N4CCN(C5CCCCC5)CC4)o3)cc3c2[nH]c2ccccc23)cc(OC)c1OC [Compound 8p] | 28.9 ± 3.22 | 8.84 ± 0.36 | 44.6 ± 4.1 | 19.1 ± 2.79 | 54.2 ± 4.87 |  |  |
|  | O=C(CSc1nnc(-c2cc3c(cn2)[nH]c2ccccc23)o1)N1CCN(c2ccc(F)cc2F)CC1 [Compound 7h] | 47.5 ± 0.78 | 2.16 ± 3.56 | 8.23 ± 4.12 |  | 46.4 ± 2.12 | 10.7 ± 2.68 |  |
|  | O=C(CSc1nnc(-c2cc3c(cn2)[nH]c2ccccc23)o1)Nc1ccc(CN2CCOCC2)cc1 [Compound 7q] | 32.3 ± 2.21 | 8.67 ± 0.64 | 17 ± 1.86 |  | 46.4 ± 2.86 | 29.5 ± 1.38 |  |
| 212.6 to 213.3 | O=C(CSc1nnc(-c2cc3c(cn2)[nH]c2ccccc23)o1)N1CCN(c2ncccn2)CC1 [Compound 7g] | 34.1 ± 6.8 | < 0 | 0.05 ± 2.99 |  | 42.5 ± 3.19 | 14.8 ± 2.23 |  |
|  | COc1cc(-c2nc(-c3nnc(SCC(=O)N4CCN(c5ccccc5)CC4)o3)cc3c2[nH]c2ccccc23)cc(OC)c1OC [Compound 8i] | 25.6 ± 3.44 | 18.4 ± 1.8 | 25.5 ± 2.72 | 21.3 ± 4.8 | 0.56 ± 3.38 |  |  |
|  | COc1cccc(N2CCN(C(=O)CSc3nnc(-c4cc5c([nH]c6ccccc65)c(-c5cc(OC)c(OC)c(OC)c5)n4)o3)CC2)c1 [Compound 8j] | 20.4 ± 1.51 | 0.13 ± 4.62 | 25 ± 3.95 | 15.7 ± 3.93 | < 0 |  |  |
|  | O=C(CSc1nnc(-c2cc3c(cn2)[nH]c2ccccc23)o1)N1CCN(C(c2ccc(F)cc2)c2ccc(F)cc2)CC1 [Compound 7o] | 35.3 ± 3.81 | < 0 | 1.26 ± 3.66 |  | 25 ± 1.43 | 5.36 ± 3.63 |  |
|  | COc1cc(-c2nc(-c3nnc(SCC(=O)N4CCN(S(C)(=O)=O)CC4)o3)cc3c2[nH]c2ccccc23)cc(OC)c1OC [Compound 8m] | 21 ± 2.61 | 2.7 ± 1.78 | 30.2 ± 2.16 | 46.58 ± 0.35 | < 0 |  |  |
